Legend:
CDK2 [1] = target: CDK2 (UniProt P24941); test: Enzyme Assay
CDK2 [2] = target: CDK2 (UniProt P24941); test: Enzyme Assay; remark: listed apart in the source

| Structure (SMILES) | IC50 (CDK2 [1]) [µM] | IC50 (CDK2 [2]) [µM] |
| --- | --- | --- |
| O=C(NCc1ccncc1)c1n[nH]cc1NC(=O)c1c(F)cccc1F | < 20 | < 20 |
| COc1ccccc1CNC(=O)c1n[nH]cc1NC(=O)c1c(F)cccc1F | < 20 | < 20 |
| Cc1cc(CNC(=O)c2n[nH]cc2NC(=O)c2c(F)cccc2F)no1 | < 20 | < 20 |
| Cc1nn(C)c(C)c1CNC(=O)c1n[nH]cc1NC(=O)c1c(F)cccc1F | < 20 | < 20 |
| O=C(NC1CCN(c2ncccn2)CC1)c1n[nH]cc1NC(=O)c1c(F)cccc1F |  | < 20 |
| CN1CCC(NC(=O)c2n[nH]cc2NC(=O)c2ccccc2OC(C)(C)C)CC1 |  | < 20 |
| O=C(Nc1c[nH]nc1C(=O)NC1CCNCC1)c1ccccc1OC(F)(F)F |  | < 20 |
| CC(NC(=O)c1n[nH]cc1NC(=O)c1c(F)cccc1F)c1ccccc1 (centres undefined) |  | < 20 |
| CN(C)[C@H]1CC[C@H](NC(=O)c2n[nH]cc2NC(=O)c2c(F)cccc2F)CC1 |  | < 20 |
| O=C(Nc1c[nH]nc1C(=O)NC1CCNCC1)c1ccccc1 |  | < 750 |
| O=C(Nc1c[nH]nc1C(=O)NC1CCNCC1)c1ccc(F)cc1 |  | < 750 |
| COc1ccccc1C(=O)Nc1c[nH]nc1C(=O)N[C@H]1CC[C@H](O)CC1 |  | < 20 |
| O=C(Nc1c[nH]nc1C(=O)N[C@H]1CC[C@H](O)CC1)c1cccc2c1OCCO2 |  | < 20 |
| CC(C)(C)NC(=O)Nc1c[nH]nc1C(=O)NCC1CC1 |  | < 20 |
| O=C(NCC1CCNCC1)c1n[nH]cc1NC(=O)c1c(F)cccc1F |  | < 20 |
| CN1CCC(NC(=O)c2n[nH]cc2NC(=O)c2cc(Cl)ccc2Cl)CC1 |  | < 20 |
| COc1cccc(F)c1C(=O)Nc1c[nH]nc1C(=O)N[C@H]1CC[C@H](O)CC1 |  | < 20 |
| O=C(N[C@H]1CC[C@H](N2CCS(=O)(=O)CC2)CC1)c1n[nH]cc1NC(=O)c1c(F)cccc1F |  | < 20 |
| COCCN1CCC(NC(=O)c2n[nH]cc2NC(=O)c2c(Cl)cccc2Cl)CC1 |  | < 20 |
| COc1cccc(F)c1C(=O)Nc1c[nH]nc1C(=O)NC1CCNCC1 |  | < 20 |
| O=C(Nc1c[nH]nc1C(=O)N[C@H]1CC[C@H](O)CC1)Nc1c(F)cccc1F |  | < 20 |
| NC[C@H]1CC[C@H](NC(=O)c2n[nH]cc2NC(=O)c2c(F)cccc2F)CC1 |  | < 20 |
| O=C(N[C@H]1CC[C@H](O)CC1)c1n[nH]cc1NC(=O)c1c(F)cccc1Cl |  | < 20 |
| Cc1onc(-c2ccccc2)c1C(=O)Nc1c[nH]nc1C(=O)NC1CCNCC1 |  | < 750 |
| O=C(NCC1CCCO1)c1n[nH]cc1NC(=O)c1c(F)cccc1F (centres undefined) | < 20 | < 20 |

| Structure (SMILES) | IC50 (CDK2 [1]) [µM] | IC50 (CDK2 [2]) [µM] |
| --- | --- | --- |
| CN1CCN([C@H]2CC[C@@H](NC(=O)c3n[nH]cc3NC(=O)c3c(F)cccc3F)CC2)CC1 |  | < 20 |
| O=C(NC1CCNCC1)c1n[nH]cc1NC(=O)c1c(F)cc(F)cc1F |  | < 20 |
| CC(C)(C)OC(=O)N1CCC(NC(=O)c2n[nH]cc2NC(=O)c2ccc(F)cc2)CC1 |  | < 20 |
| O=C(NCc1cccnc1)c1n[nH]cc1NC(=O)c1c(F)cccc1F |  | < 20 |
| O=C(Nc1ccccc1)Nc1c[nH]nc1C(=O)N[C@H]1CC[C@H](O)CC1 |  | < 20 |
| O=C(NC[C@H]1CC[C@H](NC(=O)c2n[nH]cc2NC(=O)c2c(F)cccc2F)CC1)OCc1ccccc1 |  | < 20 |
| CN1CCC(NC(=O)c2n[nH]cc2NC(=O)c2c(F)cccc2Cl)CC1 |  | < 20 |
| O=C(N[C@H]1CC[C@@H](N2CCOCC2)CC1)c1n[nH]cc1NC(=O)c1c(F)cccc1F |  | < 20 |
| COc1ccc(F)cc1C(=O)Nc1c[nH]nc1C(=O)NC1CCN(C)CC1 |  | < 20 |
| CN1CCC(NC(=O)c2n[nH]cc2NC(=O)c2cccc(Cl)c2Cl)CC1 |  | < 20 |
| CC(C)(C)OC(=O)N1CCC(NC(=O)c2n[nH]cc2NC(=O)c2ccccc2)CC1 |  | < 20 |
| CC(C)(C)C1CCC(NC(=O)c2n[nH]cc2NC(=O)c2cc(F)cc(F)c2)CC1 (centres undefined) |  | < 750 |
| O=C(N[C@H]1CCCNC1)c1n[nH]cc1NC(=O)c1c(Cl)cccc1Cl |  | < 20 |
| C[N+]1([O-])CCC(NC(=O)c2n[nH]cc2NC(=O)c2c(F)cccc2F)CC1 (centres undefined) |  | < 20 |
| CC(C)(C)C1CCC(NC(=O)c2n[nH]cc2NC(=O)c2ccc(F)cc2)CC1 (centres undefined) |  | < 750 |
| O=C1CC[C@H](NC(=O)c2n[nH]cc2NC(=O)c2c(F)cccc2F)CN1 |  | < 20 |
| CCOc1ccccc1C(=O)Nc1c[nH]nc1C(=O)NC1CCNCC1 |  | < 20 |
| CC(C)(C)C1CCC(NC(=O)c2n[nH]cc2NC(=O)c2ccccc2)CC1 (centres undefined) |  | < 750 |
| O=C(N[C@H]1CC[C@@H](NC2CCOCC2)CC1)c1n[nH]cc1NC(=O)c1c(F)cccc1F |  | < 20 |
| O=C(Nc1c[nH]nc1C(=O)NC1CCNCC1)c1ccccc1OCc1ccccc1 |  | < 20 |
| COc1cscc1C(=O)Nc1c[nH]nc1C(=O)N[C@H]1CC[C@H](O)CC1 |  | < 20 |
| O=C(NC1CCNCC1)c1n[nH]cc1NC(=O)c1c(F)cccc1Cl |  | < 20 |
| O=C(NC1CCN(c2ccccn2)CC1)c1n[nH]cc1NC(=O)c1c(F)cccc1F |  | < 20 |
| O=C(N[C@@H]1CCNC1)c1n[nH]cc1NC(=O)c1c(F)cccc1F |  | < 20 |

From the Kinase Knowledgebase extract (Sharma et al. 2016)
